The values below come from patent publication US20260216182A1, “PYRIDAZINE NLRP3 INHIBITOR COMPOUND, PHARMACEUTICAL COMPOSITION, AND PREPARATION METHOD THEREFOR AND USE THEREOF” (CHANGCHUN GENESCIENCE PHARMACEUTICAL CO., LTD., priority 2022, published 2026).

Assay [1] has as its system IL-1β. The assay is described as follows: Mouse acute peritonitis model (LPS/ATP), IL-1β in peritoneal lavage fluid and blood. The class given is in vivo, C57BL/6 mice. Conditions: 10 mg/kg oral; for inhibition at 10 mg/kg: Mus musculus, vs vehicle group. The protocol: Test Example 2: Mouse Acute Peritonitis Model Evaluation Experiment
Male C57BL/6 mice were orally administered with a 10 mg/kg dose of the test compound or control vehicle, and then injected intraperitoneally with 1 μg of E. coli 055: B5 ultrapure lipopolysaccharide (LPS) suspension 1 h later, followed by an intraperitoneal injection of 0.5 ml of 30 mM disodium salt ATP suspension (in PBS, the pH of the ATP solution was adjusted to 7.2 before injection) 2 h later. After 30 min, all animals would be euthanized by carbon dioxide, and blood and peritoneal lavage fluid would be collected. The peritoneal lavage fluid was kept at 4° C.
Preparation of peritoneal lavage fluid: The peritoneal cavity would be lavaged with ice-cold PBS (3 mL) containing 25 U/mL heparin and 10% heat-inactivated FBS. Prior to use, one tablet of the protease inhibitor mixture was added per 50 mL of buffer. The collected lavage fluid would be centrifuged (centrifugation conditions: 1000g, 4° C., 10 min) to remove cells and cell debris, and the clarified samples would be stored at −80° C. for measurement of cytokine IL-1β.
The mouse IL-1β/IL-1F2 DuoSet ELISA kit (R&D Systems) was used to measure the changes in IL-1β cytokine levels in peritoneal lavage fluid and serum. By comparing with the Vehical group, the inhibition rate of the compound on IL-1β was calculated.

Assay [2] has as its system IL-1β. The assay can be described thus: Zymosan A-induced rat pericarditis model. In kind it is in vivo, SD rats. Here is the method: Test Example 5 Zymosan A-Induced Rat Pericarditis Model Test
In this experiment, SD rats were used and 150 μL of a mixture of 50 mg/mL ZymosanA and normal saline was injected into the pericardial cavity to induce a rat pericarditis model and conduct a pharmacodynamic observation experiment. The day of modeling was designated as Day 1. The animals were weighed and randomly divided into groups one day before modeling, namely, G1 normal group, G2 model group, G3 compound 062-10 mg/kg group, G4 compound 062-30 mg/kg group, G5 colchicine-100 μg/kg group, with 7+1* animals in each group (one extra animal was reserved for each group, considering that animals may die during model establishment). After the model was established, oral administration began, once a day, for 7 consecutive days. At the end of the experiment, the animals were euthanized, the muscles were cut open at the third and fourth rib regions to expose the heart, the pericardium was carefully lifted with forceps, and as much pericardial effusion (if any) as possible was extracted with a 1 ml syringe. The pericardial effusion was centrifuged at 5000 rpm at 4° C. for 5 min, and the supernatant was frozen at −80° C. for later detection of IL-1β levels. After the pericardial effusion was collected, the heart was perfused and removed (while ensuring the integrity of the pericardium), fixed with 10% formalin for subsequent pathological examination.

The target of assay [3] is T1, NLRP3 (Homo sapiens, UniProt Q96P20).
T1 construct: endogenous in cells; host or cells: THP-1 (human monocyte, PMA-differentiated, LPS-primed, nigericin-stimulated)
The assay can be described thus: IC50 of NLRP3 inhibitors in reducing IL-1β secretion by THP-1 cells (PMA, LPS, nigericin; ELISA). In kind it is cell-based. Particulars: compound + nigericin 1 h. Here is the method: Test Example 1 Experiment on Detection of IC50 of NLRP3 Inhibitors in Reducing the Level of IL-1β Secretion by THP-1 Cells
In this experiment, we use the human monocyte THP-1 to study the inhibitory activity of NLRP3 inhibitor on the secretion of IL-Iβ by cells. Human THP-1 cells are treated with crotonol-12-tetradecanoate-13-acetate (PMA) to differentiate into mature macrophage models. Then, according to the two stages of inflammasome formation in cells (assembly and activation), the cells are stimulated with lipopolysaccharide (LPS) and nigericin in turn, ultimately promoting the extracellular release of IL-1β by THP-1 cells. The first stage of inflammasome formation involves stimulating cells with LPS (lipopolysaccharide), an agonist of the Toll-like receptor TLR4, to activate the expression of the inflammasome-associated proteins NLRP3, caspase 1, and pro-IL-1β, a precursor of IL-1β. The second stage of inflammasome formation involves the addition of the potassium ion carrier nigericin, which causes a series of membrane potential changes in THP-1 cells, destroys the cell membrane structure, causes the efflux of cellular potassium ions, further stimulates the oligomerization of NLRP3 monomers to form NLRP3 oligomers, and begins to recruit ASC and pro-caspase-1 to assemble the NLRP3 inflammasome complex containing a large amount of pro-caspase-1. The pro-caspase-1 on the activated NLRP3 inflammasome is enzymatically self-activated to form a large amount of active caspase-1. The activated caspase-1 further enzymatically promotes the conversion of pro-IL-1β into mature IL-1β that can be secreted.
(1) Cell suspensions were collected. The cells were centrifuged at 1000 rpm for 4 min, the supernatant was discarded, the cells were resuspended with 1 mL of test medium, and then the cell culture medium was gently pipetted up and down with a pipette and its tip to break up the cell aggregates. After counting the cells, the THP-1 cells were resuspended with complete RPMI medium 1640 containing PMA and seeded into 96-well plates and cultured in a 37° C., 5% CO2 incubator for 72 h.
(2) The culture medium was taken out from each well with an automatic plate washer dispenser EL406 and each well was rinsed twice with PBS. To each well, 96 μL of RPMI 1640 medium containing LPS was added. The cells were cultured in a 37° C., 5% CO2 incubator for 4 h.
(3) To each well, 2 μL of the compound and 2 μL of nigericin sodium salt were added, and the final compound concentration selected was 5000 nM, 1000 nM, 200 nM, 40 nM, 8 nM, 1.6 nM, 0.32 nM, 0 nM, respectively. The cells were cultured in a 37° C., 5% CO2 incubator for 1 h.
(4) An appropriate amount of supernatant was taken out, diluted 100 times, and the content of IL-1β in the supernatant was detected using Human IL-1 beta Valukine ELISA kit.

The test system of assay [4] is IL-1β. The assay is described as follows: MSU-induced rat air pouch model, IL-1β in exudate. In kind it is in vivo, SD rats. Conditions: FIG. 2. Here is the method:
Test Example 4 MSU-Induced Rat Air Pouch Model Test
Male SD rats were used in this experiment. After an adaptation period, a dorsal air pouch model was established. On the first, fourth and seventh days of the molding, 20 ml of sterile air was injected subcutaneously into the back of the rat with an injection needle to maintain the inflation of the air pouch. On the eighth day, different doses of the compound or vehicle control were administered by oral gavage. 25 mg of sodium urate suspension was injected into the dorsal air pouch, and 5 h later, the air pouch exudate was collected. The exudate was centrifuged at 1500 rpm for 20 min, and the supernatant was collected and the IL-Iβ production was detected by ELISA (R&D, Ra1 IL-1β kit).

Where two headings read alike, the source gives them in different places.

T1 sequence (Q96P20 whole entry): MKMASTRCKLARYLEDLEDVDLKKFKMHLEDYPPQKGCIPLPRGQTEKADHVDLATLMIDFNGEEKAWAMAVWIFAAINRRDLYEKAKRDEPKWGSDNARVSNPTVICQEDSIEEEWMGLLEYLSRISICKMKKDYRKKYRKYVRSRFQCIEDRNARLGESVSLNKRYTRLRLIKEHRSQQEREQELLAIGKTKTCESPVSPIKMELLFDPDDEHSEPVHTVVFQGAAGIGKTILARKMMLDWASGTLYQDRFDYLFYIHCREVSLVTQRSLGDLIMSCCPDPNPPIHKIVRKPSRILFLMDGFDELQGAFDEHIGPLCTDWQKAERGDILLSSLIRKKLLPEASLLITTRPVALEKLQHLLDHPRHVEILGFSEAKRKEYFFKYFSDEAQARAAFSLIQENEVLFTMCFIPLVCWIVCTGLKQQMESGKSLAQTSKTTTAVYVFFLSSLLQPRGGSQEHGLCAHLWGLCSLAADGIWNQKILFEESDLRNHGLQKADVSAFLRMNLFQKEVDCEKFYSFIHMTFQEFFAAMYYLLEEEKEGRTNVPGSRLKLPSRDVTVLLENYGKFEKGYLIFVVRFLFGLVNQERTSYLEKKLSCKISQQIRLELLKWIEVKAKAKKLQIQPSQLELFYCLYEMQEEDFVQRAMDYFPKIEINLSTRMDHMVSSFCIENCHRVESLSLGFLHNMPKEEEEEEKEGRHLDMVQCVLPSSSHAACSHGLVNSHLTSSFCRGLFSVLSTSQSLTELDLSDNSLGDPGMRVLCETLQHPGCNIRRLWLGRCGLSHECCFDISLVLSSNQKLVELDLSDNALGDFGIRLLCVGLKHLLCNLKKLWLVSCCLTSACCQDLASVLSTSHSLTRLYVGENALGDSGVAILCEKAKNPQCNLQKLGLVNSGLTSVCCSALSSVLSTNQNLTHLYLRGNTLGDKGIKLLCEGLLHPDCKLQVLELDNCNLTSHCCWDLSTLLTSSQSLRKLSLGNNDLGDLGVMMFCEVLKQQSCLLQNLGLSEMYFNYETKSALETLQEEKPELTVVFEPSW

With `CC#Cc1ccc2c(-c3ccc(Cl)cc3O)nnc(NC[C@H](O)CO)c2c1` [Compound 062, (S)-3-((4-(4-chloro-2-hydroxyphenyl)-7-(prop-1-yn-1-yl)phthalazin-1-yl)amino) propan-1,2-diol], in assay [1], the “inhibitory effect on IL-1β in the in vivo animal model (in words)” value is given as “Conclusion: Some compounds showed inhibitory effects on IL-1β in the in vivo animal model evaluation experiment, among which compound 062 had the most significant inhibitory effect”. Further, the inhibition – broadly, the percentage by which the read-out fell short of the control – at 10 mg/kg in assay [1] (read-out: IL-1β Peritoneal lavage fluid (inhibition rate)) amounted to 94%; in assay [1] (read-out: IL-1β Plasma (inhibition rate)), 96%. For the same molecule, in assay [2] (10 and 30 mg/kg oral once a day, 7 days, FIG. 3), the “degree of pericardial inflammation” value is “improved the degree of pericardial inflammation”. Also, in assay [2] (10 and 30 mg/kg oral once a day, 7 days, FIG. 4), the “production of IL-1β in the pericardium and pericardial effusion” value was “significantly inhibited the production of IL-1β in the pericardium and pericardial effusion”. Moreover, the “effect compared with colchicine” value in assay [2] (colchicine 100 μg/kg) was “comparable to that of colchicine”. Besides, the IC50 (usually the midpoint of a concentration-inhibition curve) in assay [3] was 9.7 nM. Besides, the “effect on IL-1β compared with colchicine and tofacitinib” value in assay [4] is “better than that of colchicine and tofacitinib”. Further, in assay [4] (oral gavage, exudate 5 h after MSU), the “production of IL-1β in the air pouch” value is listed as “significantly inhibited the production of IL-1β in the air pouch”.
